19 molecules from ChEMBL document CHEMBL4477231, “Design, synthesis and antiproliferative activity studies of novel dithiocarbamate-chalcone derivates” (Bioorg Med Chem Lett, 2016) can be followed below.

The source made the active and inactive calls. No cut-off for these calls is given here.

For one assay, the system named is ECa-109 cell line. As to the kind of experiment: Cytotoxicity against human EC109 cells assessed as cell growth inhibition after 72 hrs by MTT assay. In kind it is functional, cell-based. The settings on record: ECa-109, 72 h.
The test system of assay [1] is SK-N-SH. As to the kind of experiment: Cytotoxicity against human SK-N-SH cells assessed as cell growth inhibition after 72 hrs by MTT assay. In kind it is functional, cell-based.
For the next assay, the system named is MGC-803. The experiment in a line: Cytotoxicity against human MGC803 cells assessed as cell growth inhibition after 72 hrs by MTT assay. In kind it is functional, cell-based. The settings on record: MGC-803, 72 h.
The next assay concerns GES1. As to the kind of experiment: Cytotoxicity against human GES-1 cells assessed as reduction in cell viability after 72 hrs by MTT assay. In kind it is cell-based. The settings on record: GES1, 72 h.
Assay [2] concerns SK-N-SH. The experiment in a line: Induction of apoptosis in human SK-N-SH cells assessed as round cells at 5 uM after 24 to 48 hrs by Hoechst 33258 staining based fluorescence microscopy. In kind it is functional, cell-based.
Assay [3] has as its system SK-N-SH. The experiment in a line: Induction of apoptosis in human SK-N-SH cells assessed as chromatin shrinkage at 5 uM after 24 to 48 hrs by Hoechst 33258 staining based fluorescence microscopy. It counts as functional, cell-based.
Assay [4] concerns SK-N-SH. The experiment in a line: Induction of apoptosis in human SK-N-SH cells assessed as formation of apoptotic bodies at 5 uM after 24 to 48 hrs by Hoechst 33258 staining based fluorescence microscopy. It counts as functional, cell-based.
Assay [5] deals with SK-N-SH. As to the kind of experiment: Induction of apoptosis in human SK-N-SH cells at 5 uM after 24 hrs by Annexin V-FITC/propidium iodide staining based flow cytometry relative to control. In kind it is functional.
Assay [6] relates to SK-N-SH. The experiment in a line: Induction of apoptosis in human SK-N-SH cells at 5 uM after 48 hrs by Annexin V-FITC/propidium iodide staining based flow cytometry relative to control. In kind it is functional.
Assay [7] has as its system SK-N-SH. The experiment in a line: Induction of apoptosis in human SK-N-SH cells at 5 uM by Annexin V-FITC/propidium iodide staining based flow cytometry. As to conditions: TDE = time-dependent effect. It counts as functional, cell-based.
Assay [8] deals with SK-N-SH. As to the kind of experiment: Cell cycle arrest in human SK-N-SH cells assessed as accumulation at G0/G1 phase at 2.5 uM after 24 hrs by propidium iodide staining based flow cytometry (reference value: 50.26 %). It counts as functional.
Assay [9] relates to SK-N-SH. As to the kind of experiment: Cell cycle arrest in human SK-N-SH cells assessed as accumulation at S phase at 2.5 uM after 24 hrs by propidium iodide staining based flow cytometry (reference value: 30.91 %). In kind it is functional.
For assay [10], the system named is SK-N-SH. The experiment in a line: Cell cycle arrest in human SK-N-SH cells assessed as accumulation at G2/M phase at 2.5 uM after 24 hrs by propidium iodide staining based flow cytometry (reference value: 17 %). It counts as functional.
The subject of assay [11] is SK-N-SH. As to the kind of experiment: Cell cycle arrest in human SK-N-SH cells assessed as accumulation at G0/G1 phase at 5 uM after 24 hrs by propidium iodide staining based flow cytometry (reference value: 50.26 %). It counts as functional.
Assay [12] deals with SK-N-SH. As to the kind of experiment: Cell cycle arrest in human SK-N-SH cells assessed as accumulation at S phase at 5 uM after 24 hrs by propidium iodide staining based flow cytometry (reference value: 30.91 %). It counts as functional.
For assay [13], the system named is SK-N-SH. The experiment in a line: Cell cycle arrest in human SK-N-SH cells assessed as accumulation at G2/M phase at 5 uM after 24 hrs by propidium iodide staining based flow cytometry (reference value: 17 %). In kind it is functional.
The subject of assay [14] is SK-N-SH. As to the kind of experiment: Cell cycle arrest in human SK-N-SH cells assessed as accumulation at G0/G1 phase at 2.5 uM after 48 hrs by propidium iodide staining based flow cytometry (reference value: 54.35 %). It counts as functional.
Assay [15] deals with SK-N-SH. As to the kind of experiment: Cell cycle arrest in human SK-N-SH cells assessed as accumulation at S phase at 2.5 uM after 48 hrs by propidium iodide staining based flow cytometry (reference value: 27.41 %). In kind it is functional.
The test system of assay [16] is SK-N-SH. The experiment in a line: Cell cycle arrest in human SK-N-SH cells assessed as accumulation at G2/M phase at 2.5 uM after 48 hrs by propidium iodide staining based flow cytometry (reference value: 18.35 %). It counts as functional.
In assay [17] the test system is SK-N-SH. As to the kind of experiment: Cell cycle arrest in human SK-N-SH cells assessed as accumulation at G0/G1 phase at 5 uM after 48 hrs by propidium iodide staining based flow cytometry (reference value: 54.35 %). It counts as functional.
The subject of assay [18] is SK-N-SH. As to the kind of experiment: Cell cycle arrest in human SK-N-SH cells assessed as accumulation at S phase at 5 uM after 48 hrs by propidium iodide staining based flow cytometry (reference value: 27.41 %). In kind it is functional.
Assay [19] relates to SK-N-SH. The experiment in a line: Cell cycle arrest in human SK-N-SH cells assessed as accumulation at G2/M phase at 5 uM after 48 hrs by propidium iodide staining based flow cytometry (reference value: 18.35 %). It counts as functional.
The subject of assay [20] is SK-N-SH. The experiment in a line: Induction of apoptosis in human SK-N-SH cells assessed as increase in p53 expression at 2.5 to 5 uM after 48 hrs. It counts as functional, cell-based.
Assay [21] relates to SK-N-SH. The experiment in a line: Induction of apoptosis in human SK-N-SH cells assessed as reduction in procaspase-3 level at 2.5 to 5 uM after 48 hrs. In kind it is functional, cell-based.

Regarding `O=C(/C=C/c1ccc(Cl)cc1)c1ccc(OCCCSC(=S)N2CCCCC2)cc1`, the figures for the IC50 with ECa-109 cell line, in the assay on SK-N-SH [1] and with MGC-803 were 42.6 µM, 32.2 µM and 56.8 µM, respectively.
As for `O=c1[nH]cc(F)c(=O)[nH]1` [FLUOROURACIL], the IC50 in the assay with SK-N-SH [1] stood at 9.84 µM; in the assay with MGC-803, 7.21 µM.
Consider `COc1cc(/C=C/C(=O)c2ccc(OCCSC(=S)N3CCCCC3)cc2)cc(OC)c1OC`, for which the IC50 is 38.9 µM in the assay on ECa-109 cell line, 48.4 µM with SK-N-SH [1] and 41.3 µM with MGC-803.
The corresponding values for `CN1CCN(C(=S)SCCCOc2ccc(C(=O)/C=C/c3cc(Cl)cc(Cl)c3)cc2)CC1` are 12.4 µM, 24.6 µM and 19.4 µM.
With `O=C(/C=C/c1ccc(Cl)cc1)c1ccc(OCCCSC(=S)N2CCCC2)cc1`, the 50% inhibitory concentration (IC50) with ECa-109 cell line is 18.6 µM; with SK-N-SH [1], 19.1 µM; in the assay on MGC-803, 34.5 µM.
The corresponding values for `COc1cc(/C=C/C(=O)c2ccc(OCCSC(=S)N3CCCC3)cc2)cc(OC)c1OC` are 10.7 µM, 12.1 µM and 31.7 µM.
Take `O=C(/C=C/c1ccc(Cl)cc1)c1ccc(OCCSC(=S)N2CCCCC2)cc1`: the half-maximal inhibitory concentration (IC50) worked out at 26.1 µM with ECa-109 cell line, 27.4 µM with SK-N-SH [1] and 12.8 µM in the assay on MGC-803.
In the case of `COc1cc(/C=C/C(=O)c2ccc(OCCSC(=S)N3CCN(C)CC3)cc2)cc(OC)c1OC`, the IC50 was 10 µM in the assay with ECa-109 cell line, 2.46 µM in the assay on SK-N-SH [1], 8.28 µM in the assay on MGC-803 and greater than 64 µM in the assay with GES1.
In the case of `O=C(/C=C/c1cccnc1)c1ccc(OCCCSC(=S)N2CCCC2)cc1`, the IC50 in the assay on ECa-109 cell line is 29.8 µM; with SK-N-SH [1] it was 24.5 µM; with MGC-803 it was 19.5 µM.
On to `CN1CCN(C(=S)SCCCOc2ccc(C(=O)/C=C/c3cc(F)cc(F)c3)cc2)CC1`, for which the IC50 in the assay on ECa-109 cell line turned out to be 14.5 µM; in the assay with SK-N-SH [1], 13.2 µM; in the assay with MGC-803, 16.3 µM.
Regarding `COc1cc(/C=C/C(=O)c2ccc(OCCCSC(=S)N3CCN(C)CC3)cc2)cc(OC)c1OC`, the IC50 is 7.43 µM in the assay with ECa-109 cell line, 2.03 µM in the assay with SK-N-SH [1], 7.37 µM in the assay on MGC-803 and greater than 64 µM in the assay with GES1. Further, the result with SK-N-SH [2], in the assay on SK-N-SH [3], in the assay with SK-N-SH [4], in the assay on SK-N-SH [20] and with SK-N-SH [21] was Active. Also, the Activity in the assay on SK-N-SH [5] is 20.6%; in the assay on SK-N-SH [6], 36.8%; in the assay with SK-N-SH [7], “Tde”; with SK-N-SH [8], 50.03%; in the assay on SK-N-SH [9], 31.19%; in the assay on SK-N-SH [10] it was 18.55%. Besides, the Activity in the assay on SK-N-SH [11] came out at 68.19%; with SK-N-SH [12], 25.26%; in the assay with SK-N-SH [13] it was 6.11%; in the assay with SK-N-SH [14] it was 59.64%; with SK-N-SH [15] it was 26.02%; in the assay on SK-N-SH [16], 13.81%. Further, the Activity in the assay on SK-N-SH [17] is 74.85%; in the assay on SK-N-SH [18], 14.22%; with SK-N-SH [19] it was 10.54%.
With `O=C(/C=C/c1cc(F)cc(F)c1)c1ccc(OCCCSC(=S)N2CCCC2)cc1`, the figures for the IC50 in the assay on ECa-109 cell line, in the assay with SK-N-SH [1] and in the assay on MGC-803 were 28.8 µM, 36.1 µM and 28.4 µM, respectively.
The matching figures for `O=C(/C=C/c1ccc(Cl)cc1)c1ccc(OCCSC(=S)N2CCCC2)cc1`: 27.8 µM, 18.3 µM and 47.9 µM.
The matching figures for `CN1CCN(C(=S)SCCCOc2ccc(C(=O)/C=C/c3ccc(Cl)cc3)cc2)CC1`: 34.2 µM, 31.9 µM and 29.4 µM.
For the molecule `O=C(/C=C/c1ccc(Cl)cc1)c1ccc(OCCSC(=S)N2CCOCC2)cc1`, the results for the IC50 in the assay on ECa-109 cell line, with SK-N-SH [1] and in the assay on MGC-803 were 15.4 µM, 11.7 µM and 11.5 µM, respectively.
The matching figures for `COc1ccc(/C=C/C(=O)c2ccc(OCCCSC(=S)N3CCN(C)CC3)cc2)cc1`: greater than 100 µM, 29.5 µM and 19.4 µM.
The corresponding values for `O=C(/C=C/c1cccs1)c1ccc(OCCSC(=S)N2CCCC2)cc1` are 18.2 µM, 19.1 µM and 32.4 µM.
For the molecule `O=C(/C=C/c1cccs1)c1ccc(OCCCSC(=S)N2CCCCC2)cc1`, the values for the IC50 in the assay on ECa-109 cell line, with SK-N-SH [1] and in the assay with MGC-803 were 36.4 µM, 38.2 µM and 41.3 µM, respectively.
The matching figures for `COc1cc(/C=C/C(=O)c2ccc(OCCCSC(=S)N3CCCC3)cc2)cc(OC)c1OC`: 11.1 µM, 12.8 µM and 14.5 µM.
